Results taken from patent publication US12642759B2, “Cosmetic composition for improving skin containing extracts of polygala tenuifolia, angelica dahurica and elsholtzia splendens” (SOOY-K CO., LTD., priority 2023, dated 2026).

Assays:
[1] = ABTS radical scavenging assay; assay type: biochemical; settings: concentration 50 μg/mL, positive control
Method: Antioxidant activity was measured using […] (ABTS) radical with reference to the Van den Berg method. This method uses the principle that ABTS+ radical, which has a blue-green color, is made to be transparent by antioxidants. 7 mM ABTS and 2.4 mM potassium persulfate were mixed and left at room temperature in the dark for 24 hours to form ABTS. Absorbance was measured at 734 nm, and the material was used for the experiment after adjusting the absorbance to 0.7±0.1. 100 μL of ABTS working solution and 100 μL of samples of each concentration were mixed and reacted in the dark for 10 minutes. Then, the absorbance was measured at […] and the radical scavenging activity was calculated as shown in Equation 2 below. Ascorbic acid, an antioxidant, was used as a positive control, and an ABTS solution which was not treated with a sample was used as a negative control. [formula] 1-5. Cell Culture

[2] = DPPH radical scavenging assay; assay type: biochemical; settings: concentration 50 μg/mL, positive control
Method: Antioxidant efficacy was measured by DPPH radical scavenging activity based on the Blois' method. This assay is one of the generation methods. DPPH is purple in the radical state, and when reduced by receiving electrons, it changes its color to yellow (DPPH-H). 100 μL of 0.2 mM DPPH solution and 80 μL of samples of each concentration were mixed in a 96-well plate, reacted for 30 minutes at room temperature in the dark, and then absorbance was measured at 517 nm to calculate radical scavenging activity according to Equation 1 below. Ascorbic acid, an antioxidant, was used as a positive control, and a DPPH solution which was not treated with a sample was used as a negative control. [formula] ABTS Radical Scavenging Assay

Staphylococcus aureus = assay: Antibacterial activity, paper disc method; assay type: cell-based; settings: 4 mg/mL, positive control, 8 mm paper disc, read-out: Clear zone
Method: The antibacterial effect was measured against Staphylococcus aureus (S. aureus). The paper disc method was used to measure the antibacterial activity of the samples. Each strain cultured on a solid plate medium was taken by a platinum loop, then inoculated into a 4 mL liquid medium, and cultured for 20 hours to activate it. Then, 500 μL of the strain was inoculated into 3 mL of liquid medium and cultured for 4 hours. The strain was inoculated onto a solid plate medium so that the number of bacteria was 1×10^6-5×10^6/mL, and then spread evenly using a spreader. Each sample was prepared according to the concentrations, and 50 μL of the sample was absorbed into a paper disc (Toyo, Japan) with a diameter of 8 mm. The paper disc was placed on a solid plate medium inoculated with the strain and cultured at 37° C. for 20 hours. Then, the diameter of the clear zone around the disc was measured. Disc diffusion test is performed by placing a disc into which a sample was absorbed on an agar plate medium inoculated with bacteria and culturing them, and then measuring the diameter of the inhibition zone (clear zone) of the sample that diffused around the disc as much as it inhibited the growth of the bacteria.

Compound	ABTS radical scavenging activity (antioxidant activity) [1] [%]	DPPH radical scavenging activity (antioxidant activity) [2] [%]	zone of inhibition at 4000 µg/mL (Staphylococcus aureus) [mm]
O=C1O[C@H]([C@@H](O)CO)C(O)=C1O [Ascorbic acid, ascorbic acid]	99.68±0.21	87.21±0.56	
COC(=O)c1ccc(O)cc1 [Methyl paraben]			8.5
